From patent publication US20250250300A1, “COMPOSITIONS AND METHODS FOR TREATING PSEUDOMYXOMA PERITONEI” (UNIVERSITY OF SOUTH CAROLINA, priority 2024, published 2025)
*1 amine or outer side, *2 acyl side, *3 side chain or, on linkers, in order; H or OH if unused. Where a SMILES comes first, the peptide text is derived from it. Bridges are numbered along the chain shown (N, C = ends). [ ]: non-standard residue; d: D form. The star is where a group is joined. X2 = NC(=O)C[C@@H](O)[C@@H](N[*:1])C(=O)[*:2]; d(aThr) = C[C@@H](O)[C@@H](N)C(=O)O; NMeF = CN[C@@H](Cc1ccccc1)C(=O)O; X1 = CC[C@@H](C)CCCCCCCCCCC(=O)*; dNMeN = CN[C@H](CC(N)=O)C(=O)O

Assays:
[1] = reported; cited from earlier work
[2] = test system: PMP501-1 cells; experiment: cell uptake, LCMS of cell lysate, PMP501-1; format: cell-based, human; conditions: for ratio of compound in cell lysis versus control extracts: PMP501-1, compound fed, 5 days of incubation
Description: (§1) Due to the inability of entering target cells passively, most cyclic lipopeptides are reported to perform biological functions by disrupting cell wall biosynthesis or the integrity of cell membranes. Given that myxomapeptins influence mitochondrial respiration and glycolysis, which occur in the cytoplasm, without wishing to be bound by theory, it was hypothesized that myxomapeptins are likely able to enter PMP cells. To this end, 2 was fed into the cultures of PMP501-1, ABX023-1, HT-29 and FHC cells with normalized cell density. After 5 days of incubation and a thorough wash, the cells were lysed and extracted by butanol for LCMS analysis. By calculating the ratio of 2 in cell lysis versus control extracts, 18.9% and 26.7% of 2 were found in the lysates of PMP501-1 and ABX023-1, whereas only 6.1% and 4.1% were detected from the lysates of HT-29 and FHC, respectively (FIG. 3A).
(§2) Next, to study the percentage of myxomapeptins contributed by the intracellular PMP498-3 in light of the presence of PMP498-3 bacteria inside the PMP cells, the bacteria was co-cultured with the cell lines tested above.

[3] = test system: ABX023-1 cells; experiment: cell uptake, LCMS of cell lysate, ABX023-1; format: cell-based, human; conditions: for ratio of compound in cell lysis versus control extracts: ABX023-1, compound fed, 5 days of incubation
Description: as §1, §2

[4] = test system: HT-29 cells; experiment: cell uptake, LCMS of cell lysate, HT-29; format: cell-based, human; conditions: HT-29, compound fed, 5 days of incubation
Description: as §1

[5] = test system: FHC cells; experiment: cell uptake, LCMS of cell lysate, FHC; format: cell-based, human; conditions: compound fed, 5 days of incubation
Description: as §1

[6] = test system: PMP501-1 cells; experiment: cell viability assay (crystal violet), PMP501-1; format: cell-based, human; conditions: for stimulation of proliferation: 33.3 μM (for 3)
Protocol: (§3) To evaluate whether myxomapeptin is the major contributor to the PMP inhibition, 2 were assayed against two PMP cell lines (PMP501-1 and ABX023-1), human colorectal adenocarcinoma cells (HT-29), and human fetal intestinal epithelial cells (FHC) using crystal violet cell viability assay.
(§4) Next, the modulatory effect of 3 and 4 on PMP, HT-29 and FHC cells was evaluated. […] Subsequently, the effect of 3 and 4 on the mitochondrial respiration of ABX023-1 cells was measure in the seahorse mitochondrial stress assay.

[7] = test system: ABX023-1 cells; experiment: crystal violet cell viability assay, ABX023-1; format: cell-based, human; conditions: for stimulation of proliferation: 33.3 μM (for 3)
Protocol: as §3, §4

[8] = test system: human colorectal adenocarcinoma cells (HT-29); experiment: cell viability assay (crystal violet), HT-29; format: cell-based; conditions: for effect on proliferation: 33.3 μM (for 3)
Protocol: as §3, §4

[9] = test system: human fetal intestinal epithelial cells (FHC); experiment: crystal violet cell viability assay, FHC; format: cell-based; conditions: for effect on proliferation: 33.3 μM (for 3)
Protocol: as §3, §4

[10] = test system: PMP501-1 cells; experiment: seahorse mitochondrial stress assay, PMP501-1; format: cell-based, human; conditions: PMP501-1, normalized per 1,000 cells
Protocol: FIG. 3B depicts seahorse mitochondrial stress assay of 2 and 5-FU (positive control) toward PMP501-1cell lines, from which the normalized oxygen consumption rate (OCR) and normalized extracellular acidification rate (ECAR) were measured. The OCR was measured at baseline and in response to sequential injections of oligomycin (O), carbonyl cyanide-p-trifluoromethoxyphenyl-hydrazon (FCCP), and rotenone with antimycin (RA).
(§5) As tumor cells requires larger energy supply that relies on mitochondrial respiration and glycolysis, we sought to explore the effect of myxomapeptins on PMP cell energy metabolism using seahorse mitochondrial stress assay. The normalized oxygen consumption rate (OCR; proportional to mitochondrial respiration) and normalized extracellular acidification rate (ECAR; proportional to glycolysis) were measured for PMP501-1 cells and FHC in the presence of 2, 5-fluorouracil (5-FU) or vehicle.

[11] = test system: FHC cells; experiment: seahorse mitochondrial stress assay, FHC; format: cell-based, human; conditions: for mitochondrial respiration (normalized OCR and ECAR): normalized per 1,000 cells
Protocol: FIG. 3C depicts seahorse mitochondrial stress assay of 2 and 5-FU (positive control) toward FHC cell lines, from which the normalized oxygen consumption rate (OCR) and normalized extracellular acidification rate (ECAR) were measured. The OCR was measured at baseline and in response to sequential injections of oligomycin (O), carbonyl cyanide-p-trifluoromethoxyphenyl-hydrazon (FCCP), and rotenone with antimycin (RA).
as §5, §4

[12] = antimicrobial activity test; format: cell-based; conditions: 64 μg/mL
Protocol: Next, the absolute configuration of amino acid residues in 1 and 2 were determined by advanced Marfey's analysis after acid hydrolysis. After derivatization with (L)-and (D)-1-fluoro-2-4-dinitrophenyl-5-L-alanine amide (FDAA), the acid hydrolysate of 1 and 2 together with amino acid standards were analyzed by LCMS. […] Besides, the analysis allowed assignment of non-canonical amino acids as (2S,3R)-MeDap, (2R,4S)—Y—OH-Gln and (2S,3R)-B-Me-Glu in the structures of 1 and 2. Thus, the structures inclusive of absolute configuration of 1 and 2 are unambiguously assigned (FIG. 2C), and were named myxomapeptins A and B based on the source of the producing strain. Myxomapeptins are a new class of depsi cyclic lipopeptide consisting of eight amino acid residues that features N-methylation, C-methylation and hydroxylation, and a-proton epimerization.

[13] = test system: ABX023-1 cells; experiment: seahorse mitochondrial stress assay, ABX023-1; format: cell-based, human; conditions: 15 μM (for 3), after FCCP supplementation
Protocol: FIG. 4C depicts seahorse mitochondrial stress assay of 3 and 4 toward ABX023-1 cell lines, from which the normalized oxygen consumption rate (OCR) and normalized extracellular acidification rate (ECAR) were measured. The OCR was measured at baseline and in response to sequential injections of oligomycin (O), carbonyl cyanide-p-trifluoromethoxyphenyl-hydrazon (FCCP), and rotenone with antimycin (RA).
as §4

[14] = test system: HT-29 cells; experiment: seahorse mitochondrial stress assay, HT-29; format: cell-based, human

CC[C@@H](C)CCCCCCCCCCC(=O)N[C@H]1C(=O)N[C@@H](CC(=O)O)C(=O)N[C@H](CO)C(=O)N[C@@H](CO)C(=O)N(C)[C@H](CC(N)=O)C(=O)N(C)[C@@H](Cc2ccccc2)C(=O)N[C@H]([C@H](O)CC(N)=O)C(=O)N[C@H](CCC(=O)O)C(=O)O[C@@H]1C [Lipopeptin A, lipopeptin A] (X1-[d(aThr)]D[dS]S[dNMeN][NMeF][X2][dE]; ester 1-C)
antibacterial and antifungal activities [1]: reported to possess antibacterial and antifungal activities

neopeptin
antibacterial and antifungal activities [1]: reported to possess antibacterial and antifungal activities

CCCCCCCCCC(=O)N[C@@H](Cc1c[nH]c2ccccc12)C(=O)N[C@H](CC(N)=O)C(=O)N[C@@H](CC(=O)O)C(=O)N[C@@H]1C(=O)NCC(=O)N[C@@H](CCCN)C(=O)N[C@@H](CC(=O)O)C(=O)N[C@H](C)C(=O)N[C@@H](CC(=O)O)C(=O)NCC(=O)N[C@H](CO)C(=O)N[C@@H]([C@H](C)CC(=O)O)C(=O)N[C@@H](CC(=O)c2ccccc2N)C(=O)O[C@@H]1C [daptomycin]
ratio of compound in cell lysis versus control extracts [2]: cannot be detected | ratio of compound in cell lysis versus control extracts [3]: cannot be detected | ratio of compound in cell lysis versus control extracts [4]: cannot be detected | ratio of compound in cell lysis versus control extracts [5]: cannot be detected

myxomapeptin B [Compound 2]
IC50 [6]: 23 µM | IC50 [7]: 33.7 µM | IC50 [8]: > 100 µM | IC50 [9]: > 100 µM | mitochondrial respiration (normalized OCR and ECAR) [10]: strongly inhibits | mitochondrial respiration (normalized OCR and ECAR) [11]: not observed | ratio of compound in cell lysis versus control extracts [2]: 18.9% | percentage of 2 found in cell lysate ([2]; PMP501-1 co-cultured with PMP498-3 bacteria): 22.5% | ratio of compound in cell lysis versus control extracts [3]: 26.7% | percentage of 2 found in cell lysate ([3]; ABX023-1 co-cultured with PMP498-3 bacteria): 30.2% | ratio of compound in cell lysis versus control extracts [4]: 6.1% | ratio of compound in cell lysis versus control extracts [5]: 4.1% | antimicrobial activity [12]: no antimicrobial activity

myxomapeptin A [Compound 1]
antimicrobial activity [12]: no antimicrobial activity

N[C@@H](Cc1ccc(O)cc1)C(=O)O [Compound 4, L-tyrosine]
stimulation of proliferation [6]: no discernible effect | stimulation of proliferation [7]: no discernible effect | effect on proliferation [8]: no discernible effect | effect on proliferation [9]: no discernible effect | increase of maximum respiratory capacity [13]: do not have any effect

O=C(O)/C=C/c1ccc(O)cc1 [Compound 3, p-coumaric acid]
stimulation of proliferation [6]: ~20% | stimulation of proliferation [7]: ~20% | effect on proliferation [8]: no effect | effect on proliferation [9]: no effect | stimulatory effect on oxygen consumption [11]: no substantial stimulatory effect | increase of maximum respiratory capacity [13]: 25% | stimulatory effect on oxygen consumption [14]: no substantial stimulatory effect

O=c1[nH]cc(F)c(=O)[nH]1 [Compound 5-FU, 5-fluorouracil]
mitochondrial respiration (normalized OCR and ECAR) [10]: unselectively inhibited | mitochondrial respiration (normalized OCR and ECAR) [11]: unselectively inhibited
